US12623942B2, “Method for extracting salts and temperature- regenerated extracting composition” (ADIONICS, priority 2016, dated 2026)

Tests used:
[1] = Liquid-liquid extraction of mono-salt saline solution
Text: The extracting composition is obtained by solubilizing an amount of CEM and ASM in the selected fluidizing agent, dichloromethane CH2Cl2, dichlorobenzene or dichlorotoluene or any other fluidizing agent able to well solubilize the mixture CEM/ASM in order to obtain the searched final concentrations after solubilizing CEMs and ASMs in a minimum of 3 milliliters of fluidizing agent. If the selected fluidizing agent is also an ASM compound, so the selected ASM volume is at least 3 milliliters. The given concentrations of ASM2 and ASM9 are related to the added fluidizing agent volume and the concentrations of CEM are related to the added fluidizing agent+ASM volume. The extracting organic composition is then lightly heated so as to promote the solubilization of the organic compounds by means of a heat gun (temperature around 50 to 60° C.) for a few seconds (10 to 30 seconds) until a clear solution is obtained. The composition is thus left for 24 hours at room temperature so as to make sure that the obtained formulation is stable.
These sealed formulations are then orbitally stirred at 500 revolutions/minute for two hours after adding an equivalent volume of water which was distilled twice so as to allow a water saturation of the whole formulation and a pH control at the inlet and at the outlet (pH close to 7, or at least maintained after contact with the saturation water).
3 mL of the prepared extracting organic composition are then taken from the lower phase of the decanted diphasic mixture and transferred to a vial containing 3 mL of the water containing the one or more considered chloride salts (NaCl or others), then the vial is sealed and orbitally stirred (at 500 revolutions per minute) for 2 hours at room temperature (RT), that is to say between 20 and 25° C.
A verification is made to make sure that droplets in the range of 1-2 mm are really present during these stirrings in order to be sure that an equilibrium in the distribution of the considered chloride salt (NaCl or other) is achieved between both liquid phases at the end of stirring. The aspect of the organic and aqueous phases is clear and colorless or slightly turbid.
Once the 2-hour stirring is carried out, the stirring is stopped and the whole is left for decantation for about 10 minutes, at least until both phases are completely separated, at the temperature of the assay. Then, the upper aqueous phase is taken then stirred and diluted in order to analyze its salinity by a ion chromatography (a Metrohm™ device including a cation analyzing column and an anion analyzing column suitable for the ions and for the concentration of the salts which are searched for). Likewise, the chloride salt (NaCl or other) initial aqueous solution is also analyzed by this ion chromatography to determine its cation and chloride molar relative concentration before the extraction. All the extractions and analyses were duplicated.
The considered extracting composition comprises 0.1 mol/L of CEM1 and 3.52 mol/L of ASM2 in dichloromethane CH2Cl2, which was obtained as described above. The initial concentration of the considered salt in water, whether it is LiCl, NaCl, KCl, MgCl2, CaCl2, SrCl2 or BaCl2, is 0.1 mol/L.
After carrying out these 7 specific extractions (duplicated) of salts, the amounts of extracted cations in relative molar percentage before and after extraction at room temperature and at water/extracting formulation iso-volume are indicated in table I: […]

[2] = Regeneration (back-extraction) of the extracting composition charged with CaCl2
Procedure: Two samples of the extracting composition of example 4 with the highest content of CaCl2 at 20° C. were contacted with a saline water at 1 Mol/L of CaCl2 at room temperature to increase the salt charging level of the dissolved CEM2 cation extracting molecules, and thus to get close to their salt saturation level (0.1 Mol/L). Then, these two samples were contacted with an iso-volume of distilled water at 20° C. and stirred. One of the two diphasic samples was then heated up to 80° C. and kept under stirring. The initial salt charging level being assessed at 80 mMol/L, it appears that the latter drops to 15.27 mMol/L from the first regeneration step at 80° C. whereas, during regeneration at 20° C., the salt residual concentration is 29.3 mMol/L. FIG. 4 illustrates the results obtained throughout several serial steps of contacting the hydrophobic organic liquid phase charged with salts with an iso-volume of distilled water. […] In use, this advantage seems to be even more significant when a resin with a high CEM content, and thus a high salt content, is implemented.

[3] = Selective extraction from a binary mixture NaCl/CaCl2; settings: for % E Ca^++ / % E Na^+: RT, molar %
Text: A brine containing an equimolar mixture of salts, 0.05 mol/L of NaCl and CaCl2 each, which was made as described above, was contacted with two extracting compositions, one of which according to the invention.
Each extracting composition comprises 0.1 mol/L of CEM
[drawing 53] and 2.4 mol/L of ASM9 in 1,2-dichlorobenzene.
A brine containing a mixture of NaCl and CaCl2 is made as described above to obtain the following initial saline concentrations in a mixture: 0.2 Mol/L of NaCl and 0.03 Mol/L of CaCl2. The extracting resin, is composed of 0.1 Mol/L of CEM2, 3.52 Mol/L of ASM2 and a complement of liquid ASM1, which is also used as a fluidizing agent.

[4] = Complexing constant Log K in methanol at 25° C.; format: binding
Procedure: K is the complexing constant of a CEM and a […] cation in methanol, at 25° C., which is measured according to the standard method of isothermal calorimetric titration.

[5] = 0.1M CEM + 3.52M ASM2 in CH2Cl2, initial salt 0.1 mol/L, Org./Water = 1, molar %
[6] = 0.1 Mol/L CEM2 + 3.52 Mol/L ASM2 + complement of liquid ASM1, brine 0.2 Mol/L NaCl and 0.03 Mol/L CaCl2
[7] = 0.1 mol/L CEM + 2.4 mol/L ASM9 in 1,2-dichlorobenzene, brine 0.05 mol/L NaCl and CaCl2 each

- Log K(Cs^+, MeOH, 25° C.) [4]: 2.8
- Log K(K^+, MeOH, 25° C.) [4]: 3.3
- Log K(Li^+, MeOH, 25° C.) [4]: 2.6
- Log K(Na^+, MeOH, 25° C.) [4]: 2.8
- Log K(Rb^+, MeOH, 25° C.) [4]: 2.6
SMILES: CCN(CC)C(=O)COc1c2cc(C(C)(C)C)cc1Cc1cc(C(C)(C)C)cc(c1OCC(=O)N(CC)CC)Cc1cc(C(C)(C)C)cc(c1OCC(=O)N(CC)CC)Cc1cc(C(C)(C)C)cc(c1OCC(=O)N(CC)CC)Cc1cc(C(C)(C)C)cc(c1OCC(=O)N(CC)CC)Cc1cc(C(C)(C)C)cc(c1OCC(=O)N(CC)CC)C2 [CEM2, 4-tert-butyl-Calix[6]arene hexakis(N,N-diethylacetamide)]
- Extraction rate at room temperature (RT), BaCl2 [1, 5]: 63.2%
- Extraction rate at room temperature (RT), CaCl2 [1, 5]: 57.8%
- Extraction rate at room temperature (RT), KCl [1, 5]: 25.4%
- Extraction rate at room temperature (RT), LiCl [1, 5]: 21.9%
- Extraction rate at room temperature (RT), MgCl2 [1, 5]: 13.5%
- Extraction rate at room temperature (RT), NaCl [1, 5]: 22.7%
- Extraction rate at room temperature (RT), SrCl2 [1, 5]: 63.8%
- Calcium to sodium extraction rate ([1]; solutions containing only one of these salts (example 3)): 2.54
- Salt residual concentration after regeneration ([2]; 0.1 Mol/L CEM2 + 1 Mol/L ASM9 in 1,2-dichlorobenzene, initial charge 80 mMol/L CaCl2, iso-volume distilled water, 20° C.): 29.3 mmol/L
- Salt charging level after the first regeneration step ([2]; 0.1 Mol/L CEM2 + 1 Mol/L ASM9 in 1,2-dichlorobenzene, initial charge 80 mMol/L CaCl2, iso-volume distilled water, 80° C.): 15.27 mmol/L
- Reduction in the number of necessary regeneration steps, hot regeneration ([2]; 80° C. versus 20° C., same CaCl2 overall back-extraction rate): 2 fold
- % E Ca^++ [3, 6]: 88.0%
- % E Na^+ [3, 6]: 5.0%
- % E Ca^++ [3, 7]: 56.0%
- % E Na^+ [3, 7]: 4.0%
- Ratio of the Ca/Na extraction rates ([3]; 0.2 Mol/L NaCl and 0.03 Mol/L CaCl2 (example 7)): 17.6
- Calcium to sodium extraction rate ([3]; mixture with an iso-concentration of cations (example 6)): 14 times
